Test [1] deals with Baculoviral IAP repeat-containing protein 2/Cellular retinoic acid-binding protein 2 (Homo sapiens, UniProt P29373+Q13490). The experiment in a line: Protac activity at cIAP1 (unknown origin)/CRABP-II (unknown origin) assessed as protein degradation.
Test [2] has as its target E3 ubiquitin-protein ligase XIAP/Tyrosine-protein kinase ABL1/Breakpoint cluster region protein (Homo sapiens, UniProt P00519+P11274+P98170). The experiment in a line: Protac activity at XIAP/BCR-ABL in human K562 cells assessed as induction of BCR-ABL protein degradation measured after 6 hrs by Western blot analysis. The format is cell-based.
Test [3] addresses Baculoviral IAP repeat-containing protein 2/E3 ubiquitin-protein ligase XIAP/Breakpoint cluster region protein/Tyrosine-protein kinase ABL1 (Homo sapiens, UniProt P00519+P11274+P98170+Q13490). The experiment in a line: Protac activity at IAP/BCR-ABL in human K562 cells assessed as induction of BCR-ABL protein degradation measured after 6 hrs by Western blot analysis. The class given is cell-based.

Test [4] concerns the target Estrogen receptor/E3 ubiquitin-protein ligase XIAP (Homo sapiens, UniProt P03372+P98170). The experiment in a line: Protac activity at XIAP (unknown origin)/ERalpha (unknown origin) assessed as protein degradation. The format is protein assay.

By EC50 is commonly meant the concentration at which the effect is half-maximal.

Sequence of Estrogen receptor/E3 ubiquitin-protein ligase XIAP (P03372 whole entry): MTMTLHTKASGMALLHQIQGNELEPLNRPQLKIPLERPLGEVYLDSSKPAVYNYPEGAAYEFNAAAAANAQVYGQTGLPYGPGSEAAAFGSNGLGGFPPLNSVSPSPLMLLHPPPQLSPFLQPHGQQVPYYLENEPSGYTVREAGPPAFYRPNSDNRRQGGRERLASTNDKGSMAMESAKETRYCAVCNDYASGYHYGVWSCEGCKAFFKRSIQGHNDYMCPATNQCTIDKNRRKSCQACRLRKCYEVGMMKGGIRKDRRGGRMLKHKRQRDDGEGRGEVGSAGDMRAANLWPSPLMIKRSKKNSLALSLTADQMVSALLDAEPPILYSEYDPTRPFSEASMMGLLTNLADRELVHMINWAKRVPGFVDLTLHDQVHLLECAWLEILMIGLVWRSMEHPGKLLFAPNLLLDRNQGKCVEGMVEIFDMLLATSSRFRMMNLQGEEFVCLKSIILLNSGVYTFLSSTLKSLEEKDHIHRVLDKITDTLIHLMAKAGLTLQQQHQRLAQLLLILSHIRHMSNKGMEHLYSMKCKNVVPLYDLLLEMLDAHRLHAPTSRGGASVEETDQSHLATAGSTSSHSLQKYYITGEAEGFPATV
Sequence of Estrogen receptor/E3 ubiquitin-protein ligase XIAP (P98170 whole entry): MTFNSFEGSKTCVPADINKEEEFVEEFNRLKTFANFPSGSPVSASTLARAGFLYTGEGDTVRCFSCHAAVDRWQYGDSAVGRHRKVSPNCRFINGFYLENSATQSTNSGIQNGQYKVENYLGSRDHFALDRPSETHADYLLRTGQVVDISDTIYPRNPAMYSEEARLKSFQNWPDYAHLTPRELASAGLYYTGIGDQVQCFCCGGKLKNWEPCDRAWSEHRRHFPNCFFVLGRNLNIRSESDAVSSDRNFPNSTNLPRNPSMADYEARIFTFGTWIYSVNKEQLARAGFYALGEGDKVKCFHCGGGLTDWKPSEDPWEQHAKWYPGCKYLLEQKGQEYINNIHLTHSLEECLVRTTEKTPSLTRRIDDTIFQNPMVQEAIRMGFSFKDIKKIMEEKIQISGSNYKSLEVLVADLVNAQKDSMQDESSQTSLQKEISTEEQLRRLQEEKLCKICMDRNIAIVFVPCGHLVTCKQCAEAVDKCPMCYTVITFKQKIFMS
Sequence of Baculoviral IAP repeat-containing protein 2/Cellular retinoic acid-binding protein 2 (P29373 whole entry): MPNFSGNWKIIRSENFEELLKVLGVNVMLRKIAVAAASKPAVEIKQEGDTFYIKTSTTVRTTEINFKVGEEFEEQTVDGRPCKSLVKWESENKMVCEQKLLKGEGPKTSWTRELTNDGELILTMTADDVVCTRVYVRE
Sequence of Baculoviral IAP repeat-containing protein 2/Cellular retinoic acid-binding protein 2 (Q13490 whole entry): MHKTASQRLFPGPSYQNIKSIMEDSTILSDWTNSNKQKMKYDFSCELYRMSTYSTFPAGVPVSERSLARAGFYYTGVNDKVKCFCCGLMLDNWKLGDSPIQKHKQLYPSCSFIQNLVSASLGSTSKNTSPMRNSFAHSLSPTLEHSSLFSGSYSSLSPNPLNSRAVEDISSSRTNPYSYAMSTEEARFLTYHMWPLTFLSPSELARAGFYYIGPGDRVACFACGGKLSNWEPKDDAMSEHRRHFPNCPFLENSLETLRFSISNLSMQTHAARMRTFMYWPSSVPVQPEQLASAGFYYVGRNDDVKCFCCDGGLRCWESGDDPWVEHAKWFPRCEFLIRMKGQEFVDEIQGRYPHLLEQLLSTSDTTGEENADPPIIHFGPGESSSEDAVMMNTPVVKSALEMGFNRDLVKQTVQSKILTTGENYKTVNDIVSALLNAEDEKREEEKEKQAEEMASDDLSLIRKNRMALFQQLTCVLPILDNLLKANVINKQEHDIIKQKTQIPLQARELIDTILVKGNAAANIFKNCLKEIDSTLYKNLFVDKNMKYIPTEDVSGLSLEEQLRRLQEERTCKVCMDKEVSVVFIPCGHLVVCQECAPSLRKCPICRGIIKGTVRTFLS
Sequence of E3 ubiquitin-protein ligase XIAP/Tyrosine-protein kinase ABL1/Breakpoint cluster region protein (P00519 whole entry): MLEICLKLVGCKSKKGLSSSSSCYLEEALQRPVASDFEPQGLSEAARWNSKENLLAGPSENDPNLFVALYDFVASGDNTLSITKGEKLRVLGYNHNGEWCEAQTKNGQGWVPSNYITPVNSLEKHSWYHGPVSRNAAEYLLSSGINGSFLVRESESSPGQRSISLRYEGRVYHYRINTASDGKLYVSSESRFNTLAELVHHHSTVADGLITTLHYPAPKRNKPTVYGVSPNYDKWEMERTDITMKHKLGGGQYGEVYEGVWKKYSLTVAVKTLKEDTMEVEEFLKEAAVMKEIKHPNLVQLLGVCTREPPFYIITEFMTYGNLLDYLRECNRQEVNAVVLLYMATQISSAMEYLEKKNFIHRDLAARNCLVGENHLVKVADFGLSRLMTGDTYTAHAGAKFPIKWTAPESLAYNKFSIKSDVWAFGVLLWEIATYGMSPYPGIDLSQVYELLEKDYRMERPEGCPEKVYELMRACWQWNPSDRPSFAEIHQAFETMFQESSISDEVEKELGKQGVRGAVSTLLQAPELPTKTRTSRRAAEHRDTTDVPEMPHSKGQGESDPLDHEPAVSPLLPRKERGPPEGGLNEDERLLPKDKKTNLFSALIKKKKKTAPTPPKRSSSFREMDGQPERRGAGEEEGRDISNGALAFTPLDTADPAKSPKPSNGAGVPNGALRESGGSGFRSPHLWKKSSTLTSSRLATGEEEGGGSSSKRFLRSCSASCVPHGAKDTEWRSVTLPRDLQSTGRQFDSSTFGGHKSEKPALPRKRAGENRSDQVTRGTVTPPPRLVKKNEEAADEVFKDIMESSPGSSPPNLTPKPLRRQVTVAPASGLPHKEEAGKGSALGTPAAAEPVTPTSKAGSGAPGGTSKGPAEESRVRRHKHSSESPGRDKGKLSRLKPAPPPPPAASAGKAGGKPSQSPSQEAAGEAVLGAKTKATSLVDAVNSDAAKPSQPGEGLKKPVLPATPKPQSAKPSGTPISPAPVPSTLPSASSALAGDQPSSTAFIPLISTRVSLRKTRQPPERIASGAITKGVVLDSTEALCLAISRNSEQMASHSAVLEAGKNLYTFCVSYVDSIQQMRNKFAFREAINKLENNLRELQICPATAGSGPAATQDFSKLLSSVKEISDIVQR
Sequence of E3 ubiquitin-protein ligase XIAP/Tyrosine-protein kinase ABL1/Breakpoint cluster region protein (P98170 whole entry): as the sequence (P98170 whole entry) above
Sequence of E3 ubiquitin-protein ligase XIAP/Tyrosine-protein kinase ABL1/Breakpoint cluster region protein (P11274 whole entry): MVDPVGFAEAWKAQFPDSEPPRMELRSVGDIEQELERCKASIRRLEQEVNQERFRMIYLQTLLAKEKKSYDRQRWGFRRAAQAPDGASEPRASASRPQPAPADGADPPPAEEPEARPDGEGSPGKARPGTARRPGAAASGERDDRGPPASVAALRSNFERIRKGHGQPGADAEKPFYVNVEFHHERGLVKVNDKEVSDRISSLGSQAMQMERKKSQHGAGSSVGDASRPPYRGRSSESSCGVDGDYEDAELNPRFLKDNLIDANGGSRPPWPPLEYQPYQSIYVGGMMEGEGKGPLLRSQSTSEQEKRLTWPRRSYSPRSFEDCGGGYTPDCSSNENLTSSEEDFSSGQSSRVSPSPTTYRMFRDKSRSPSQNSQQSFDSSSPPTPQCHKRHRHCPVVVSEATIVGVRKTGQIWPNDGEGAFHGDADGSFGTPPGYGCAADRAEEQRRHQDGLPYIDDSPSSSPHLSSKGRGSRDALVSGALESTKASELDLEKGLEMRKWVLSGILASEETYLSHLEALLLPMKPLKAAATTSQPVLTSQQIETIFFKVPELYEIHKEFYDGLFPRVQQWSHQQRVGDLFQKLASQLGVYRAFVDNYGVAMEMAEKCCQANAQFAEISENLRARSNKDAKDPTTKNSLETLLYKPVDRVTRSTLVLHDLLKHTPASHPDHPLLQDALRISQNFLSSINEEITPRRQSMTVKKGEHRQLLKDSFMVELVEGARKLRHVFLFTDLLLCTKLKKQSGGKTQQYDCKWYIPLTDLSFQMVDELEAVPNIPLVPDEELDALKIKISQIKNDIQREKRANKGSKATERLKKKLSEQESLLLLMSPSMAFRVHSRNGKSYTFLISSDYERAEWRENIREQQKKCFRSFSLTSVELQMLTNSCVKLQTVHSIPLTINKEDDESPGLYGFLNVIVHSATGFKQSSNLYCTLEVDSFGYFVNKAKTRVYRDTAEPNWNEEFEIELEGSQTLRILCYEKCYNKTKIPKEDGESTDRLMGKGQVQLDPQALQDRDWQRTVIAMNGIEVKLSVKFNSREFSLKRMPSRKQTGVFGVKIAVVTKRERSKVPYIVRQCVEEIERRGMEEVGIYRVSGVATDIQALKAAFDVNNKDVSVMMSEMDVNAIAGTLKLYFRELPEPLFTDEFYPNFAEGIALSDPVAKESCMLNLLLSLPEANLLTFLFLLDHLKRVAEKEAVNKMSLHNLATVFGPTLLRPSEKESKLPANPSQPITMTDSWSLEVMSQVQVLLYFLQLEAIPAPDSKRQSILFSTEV

For the compound `CC1=C(/C=C/C(C)=C/C=C/C(C)=C/C(=O)O)C(C)(C)CC/C1=N\OCC(=O)NCCOCCOCCOC(=O)[C@H](CC(C)C)NC(=O)[C@@H](O)[C@H](N)Cc1ccccc1`, the EC50 in test [1] is at least 1000 nM. On to `CN[C@@H](C)C(=O)N[C@H](C(=O)N1CCC[C@H]1c1nc(C(=O)c2cccc(OCCOCCOCCOCC(=O)N3CCN(c4cc(Nc5ncc(C(=O)Nc6c(C)cccc6Cl)s5)nc(C)n4)CC3)c2)cs1)C1CCCCC1`, for which the EC50 in test [2] and in test [3] was below 100 nM throughout. As to `CC/C(=C(\c1ccc(O)cc1)c1ccc(OCCN(C)C(=O)COCCOCCOCc2cccc(O[C@H]3C[C@@H](C(=O)N[C@@H]4CCCc5ccccc54)N(C(=O)[C@@H](NC(=O)[C@H](C)NC)C4CCCCC4)C3)c2)cc1)c1ccccc1`, the EC50 in test [4] is below 100 nM. `CC/C(=C(\c1ccc(O)cc1)c1ccc(OCCN(C)C(=O)COCCCCOc2cccc(C(=O)c3csc([C@@H]4CCCN4C(=O)[C@@H](NC(=O)[C@H](C)NC)C4CCCCC4)n3)c2)cc1)c1ccccc1`: the EC50 in test [4] is below 100 nM.

The record behind these values is ChEMBL document CHEMBL5241064, “Specific non-genetic IAP-based protein erasers (SNIPERs) as a potential therapeutic strategy” (Eur J Med Chem, 2021).
